Measured values as given in patent US5175183A, “Lipoxygenase inhibiting compounds” (Abbott Laboratories, priority 1991, dated 1992).

Tests used:
5-lipoxygenase = target: T1, 5-lipoxygenase (Rattus norvegicus, UniProt P12527); assay: In Vitro 5-lipoxygenase Inhibitory Activity (20,000×g supernatant from homogenized RBL-1 cells); format: biochemical; conditions: read-out: IC50 (concentration of compound producing 50% enzyme inhibition)
T1 construct: 20,000×g supernatant from homogenized RBL-1 cells; endogenous in cells; host or cells: RBL-1 cells (20,000×g supernatant of homogenate)
T1 sequence (P12527 1-673): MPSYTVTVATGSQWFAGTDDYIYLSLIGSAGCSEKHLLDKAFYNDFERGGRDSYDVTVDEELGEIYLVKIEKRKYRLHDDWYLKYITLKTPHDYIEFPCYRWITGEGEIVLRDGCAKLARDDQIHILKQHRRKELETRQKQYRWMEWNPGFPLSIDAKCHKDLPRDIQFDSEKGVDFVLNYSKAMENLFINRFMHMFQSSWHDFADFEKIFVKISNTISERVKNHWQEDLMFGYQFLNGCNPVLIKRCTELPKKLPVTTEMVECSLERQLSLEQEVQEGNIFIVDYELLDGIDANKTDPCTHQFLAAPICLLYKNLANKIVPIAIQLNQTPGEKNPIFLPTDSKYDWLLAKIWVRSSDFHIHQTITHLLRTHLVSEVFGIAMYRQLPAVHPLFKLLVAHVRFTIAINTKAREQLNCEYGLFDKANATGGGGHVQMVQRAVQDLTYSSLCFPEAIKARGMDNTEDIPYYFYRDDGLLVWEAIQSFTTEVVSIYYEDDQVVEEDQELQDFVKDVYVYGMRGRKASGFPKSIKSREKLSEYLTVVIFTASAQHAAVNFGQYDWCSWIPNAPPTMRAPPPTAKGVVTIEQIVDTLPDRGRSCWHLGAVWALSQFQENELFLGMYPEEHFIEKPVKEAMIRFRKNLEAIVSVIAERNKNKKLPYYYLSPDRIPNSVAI
Procedure: The compounds of this invention are potent inhibitors of 5-lipoxygenase. Their activity was determined using the 20,000×g supernatant from homogenized RBL-1 cells in a similar manner as that described by Dyer and coworkers (Dyer, R. D.; Haviv, F.; Hanel, A. M.; Bornemier, D. A.; Carter, G. W. Fed. Proc., Fed. Am. Soc. Exp. Biol. 1984, 43, 1462A). IC50 values (concentration of compound producing 50% enzyme inhibition) were calculated by linear regression analysius of percentage inhibition versus log inhibitor concentration plots.

Leukotriene Biosynthesis = assay: In Vivo Inhibition of Leukotriene Biosynthesis (rat peritoneal anaphylaxis model); conditions: oral gavage 200 μmol/kg one hour prior to antigen challenge, peritoneal fluid leukotrienes 15 minutes after challenge, vs mean of control group
Procedure: Inhibition of the biosynthesis of leukotrienes in vivo after oral administration of compound was determined using a rat peritoneal anaphylaxis model. In this model rats were injected intraperitoneally (ip) with rabbit antibody to bovine serum albumin (BSA) and three hours later injected ip with BSA to induce an antigen-antibody response. Rats were sacrificed 15 minutes after this challenge and the peritoneal fluids were collected and analyzed for leukotriene levels. Test compound was administered by oral gavage one hour prior to the antigen challenge. Percent inhibition values were determined by comparing the treatment group to the mean of the control group.

Row | Compound | IC50 (5-lipoxygenase) | Percent Inhibition With 200 μmol/kg oral dose (Leukotriene Biosynthesis)
1 | CC(NC(=O)NO)c1ccc(OCc2ccccc2)cc1 (stereo not shown) [Example 1, N'-hydroxy-N-[1-(phenylmethoxyphenyl)ethyl]urea] | 1.2 µM | –
2 | CC(NC(=O)N(C)O)c1ccc(OCc2ccccc2)cc1 (stereo not shown) [Example 2, N'-hydroxy-N'-methyl-N-[1-(4-phenylmethoxyphenyl)ethyl]urea] | 0.3 µM | 86%
3 | CCCCOc1ccc(C(C)NC(=O)NO)cc1 (stereo not shown) [Example 3, N'-hydroxy-N-[1-(4-butoxyphenyl)ethyl]urea] | 3.8 µM | –
4 | CC(NC(=O)NO)c1ccc2ccccc2c1 (stereo not shown) [Example 4, N'-hydroxy-N-[(1-naphth-2-yl)ethyl]urea] | 4.6 µM | –
5 | CN(O)C(=O)NCc1cccs1 [Example 6, N'-hydroxy-N'-methyl-N-[(thien-2-yl)methyl]urea] | 3.6 µM | 67%
6 | CC(NC(=O)NO)c1cc2ccccc2o1 (stereo not shown) [Example 7, N'-hydroxy-N-[(1-benzofuran-2-yl)ethyl]urea] | 12.7 µM | –
7 | CN(O)C(=O)NCc1ccsc1 [Example 8, N'-hydroxy-N'-methyl-N-[(thienyl-3-yl)methyl]urea] | 4 µM | 92%
8 | Cc1cc(C(C)NC(=O)NO)c(C)s1 (stereo not shown) [Example 9, N'-hydroxy-N-[1-(2,5-dimethylthien-3-yl)ethyl]urea] | 8.4 µM | –
9 | N'-hydroxy-N'methoxy-N-[(1-naphth-2-yl)ethyl]urea [Example 5] | 27 µM | –

The next lines start with results.

Row | IC50 (5-lipoxygenase) | Compound | Percent Inhibition With 200 μmol/kg oral dose (Leukotriene Biosynthesis)
10 | 28 µM | O=C(NO)N[C@@H]1C[C@H]1c1ccccc1 (relative stereo) [Example 11, N'-hydroxy-N-1-(trans-2-phenylcyclopropyl)urea] | –
11 | 0.27 µM | CC(NC(=O)N(C)O)c1cc2ccccc2o1 (stereo not shown) [Example 10, N'-hydroxy-N'-methyl-N-[(1-benzofur-2-yl)-ethyl]urea] | 50%
12 | 13 µM | O=C(NCc1ccsc1)N(O)CCO [Example 12, N'-hydroxy-N'-(2-hydroxyethyl)-N-[(thien-3-yl)-methyl]urea] | 79%
13 | 0.5 µM | Cc1cc(C(C)NC(=O)N(C)O)c(C)s1 (stereo not shown) [Example 13, N'-hydroxy-N'-methyl-N-[1-(2,5-dimethylthien 3-yl)ethyl]urea] | 49%
